Patent US20140045809A1, “CORROLES FOR NEUROPROTECTION AND NEURORESCUE” (priority 2008, published 2014)
“Also recorded” adds a separate entry of the source.

Columns and labels:
[1] = SOD activity (catalytic decomposition of superoxide anion radical), cytochrome C assay; type: biochemical
Experimental: SOD activity (enzyme-like catalytic decomposition of superoxide anion radical) of the corroles 1C-Fe, 6C-Fe, 1C-Mn, 1C-Cu, 2C-Mn and 3C-Mn was examined via the cytochrome C assay. The catalytic rate constants for decomposition of peroxynitrite (PN) by the newly prepared iron corrole 6C-Fe and manganese corrole 3C-Mn were determined via stopped-flow kinetics as previously described for corroles 1C-Fe, 1C-Mn, and 2C-Mn (Mahammed and Gross, 2006; Gershman et al., 2007). These tests are performed in order to estimate how electronic and structural variables affect reactivity, which is a crucial factor for design of new complexes.

SH-SY5Y cells [2] = type: cell-based; conditions: for protection against 6-OHDA compared with porphyrins 1P-Fe and 2P-Mn / 6-OHDA-induced cytotoxicity (MTT, cell death ELISA) / cell mortality, morphology and apoptotic nuclei (GAP-43 immunofluorescence, TUNEL, DAPI): 20 μM; for protection against 6-OHDA compared with porphyrins 1P-Fe and 2P-Mn: 6-OHDA 40 μM, immunofluorescence; for 6-OHDA-induced cytotoxicity (MTT, cell death ELISA) / cell mortality, morphology and apoptotic nuclei (GAP-43 immunofluorescence, TUNEL, DAPI): 30 min before 6-OHDA (40 μM)
Experimental: SH-SY5Y cells were cultured in DMEM-Eagle/F-12(HAM) (1:1) containing 10% FCS. Cells were resuspended in medium containing 2% FCS, seeded in microtiter plates (96 wells) and allowed to attach for 24 h. To examine the neuroprotective effect, cells were pretreated for 30 min with corroles 1C-Fe and 5C-Fe (1-20 μM), and were then exposed to 6-OHDA (60 μM) for further 24 h. For neurorescue assessment, SH-SY5Y cells were first treated with 6-OHDA (60 μM) for 0.5 h, 1.5 h, 3 h and 6 h followed by the addition of compounds 1C-Fe and 5C-Fe (10 μM) for further 24 h.
(§1) SH-SY5Y cells were pretreated with or without corroles 1C-Fe, 2C-Mn and 3C-Mn and porphyrins 1P-Fe and 2P-Mn (20 μM), 30 min before exposure to 6-OHDA (40 μM) for a subsequent 24 h period. Cell viability was evaluated by MTT test and cell death was assessed using the apoptotic cell death detection ELISA kit. For neurorescue, SH-SY5Y cells were first exposed to 40 μM 6-OHDA for 0.5. 1, 1.5 and 3 h, followed by the addition of the compounds 1C-Fe, 2C-Mn and 3C-Mn (20 μM) and incubated for further 24 h. Growth-associated protein (GAP-43) was detected by fluorescence microscopy using a specific primary antibody. Apoptotic nuclei were determined by terminal deoxynucleotidyl transferase-mediated UTP-digoxigenin nick end labeling analysis. 4′,6-Diamidino-2-phenylnidole (DAPI) staining was applied for nuclear labeling. […]

cleaved caspase-3 = assay: Cleaved caspase-3 level in 6-OHDA-treated SH-SY5Y cells, immunofluorescence; type: cell-based, human; conditions: 20 μM, 30 min before 6-OHDA (40 μM), 24 h
Experimental: as §1
Since 6-OHDA is also known to induce apoptosis in various cell types, including SH-SY5Y (von Coelln et al. 2001; Nie et al. 2002; Shimizu et al. 2002; Jordan et al. 2004), we further tested effect of corroles on the levels of the apoptotic marker, cleaved caspase-3, a major executer of the mitochondrial intrinsic pathway of apoptosis.

RIN-m cells = assay: Protection of RIN-m beta cells against H2O2 toxicity (MTT); type: cell-based, rat; conditions: for cytoprotective effect against H2O2-induced toxicity: H2O2 150 μM
Experimental: Two insulin-secreting beta cell lines, rat insulinoma (INS-1E) and RIN-m cells, were used to examine the protective effect of corrole 1C-Fe. The cells were cultured at 37° C., in a humid 5% CO2, 95% air environment in regular RPMI-1640 medium (Invitrogen) supplemented with 5% fetal calf serum (FCS).
After 2 days of culture, RIN-m cells (5×10^4 cells/well in 96-well plates) were treated with corrole 1C-Fe (1-50 μM) before addition of 35 μM of H2O2. Cell viability was evaluated by a colorimetric assay for mitochondrial function estimation using the MTT test as previously described (Gassen et al., 1998) and expressed as percentage of control.
RIN-m cells were grown as described in Example 5. After 3 days of culture, RIN-m cells (2.5×10^4 cells/well in 96-well plates) were treated with corroles 1C-Fe or 5C-Fe or porphyrin 1P-Fe (1 and 20 μM), added 30 min prior to treatment with 35 μM H2O2 and further incubated for 24 h. Cell injury was evaluated by MTT test. […] […].
Protective effect of iron(III) corrole complexes against H2O2-induced toxicity (150 μM) was compared to that of manganese(III) corroles and related porphyrin. […].

[3] = Rescuing DMSO from damage attributed to the hydroxyl radical (Fenton reaction); type: biochemical; conditions: for Yield (%) or amount of product (Formaldehyde): substrate DMSO; for preventing oxidative damage / protection against metal-induced oxidation of substrates: summary of Table 3
Text: Corrole complexes were examined with respect to their efficiency of rescuing DMSO from damage attributed to the hydroxyl radical, formed via the Fenton reaction that also involves superoxide anion radical and hydrogen […]. It also mimics reaction occurring in biological systems that are exposed to metal toxicity, the situation that occurs in diseases caused by brain iron accumulation.

NSC-34 cells = type: cell-based, mouse; conditions: 20 μM, 24 h; for SIN-1-induced cytotoxicity (MTT and ELISA): 30 min before SIN-1 (700 μM)
Experimental: The neuroprotective effects of the iron corrole 1C-Fe and analogous porphyrin 1P-Fe against H2O2 insult were further examined in the motor neuron cell line, NSC-34. NSC-34 cell is a hybrid neuroblastoma x spinal cord (NSC) cell line that resembles motor neurons, displaying a multipolar neuron-like phenotype. Mouse motoneuronal NSC-34 cells were pretreated with or without the corroles 1C-Fe or 2C-Mn or the structurally-related porphyrins 1P-Fe, 2P-Mn, respectively, 30 min before exposure to H2O2 (200 μM) or SIN-1 (700 μM) for a subsequent 24 h period. Cell viability (FIGS. 18A, 19A) was evaluated by MTT test and cell death (FIGS. 18B, 19B) was assessed using the apoptotic cell death detection ELISA kit. [The graphs in FIGS. 18A-18B and 19A-19B present results expressed as percentage of untreated control.

SH-SY5Y cells [4] = assay: Neuroprotection/neurorescue against SIN-1-induced cell death in SH-SY5Y cells; type: cell-based, human; conditions: for protection against SIN-1 (MTT reduction analysis and ELISA assay): 30 min before SIN-1, 24 h (Example 12)
Experimental: SH-SY5Y cells were cultured in DMEM-Eagle/F-12(HAM) (1:1) containing 10% FCS. Cells were resuspended in medium containing 2% FCS, seeded in microtiter plates (96 wells) and allowed to attach for 24 h before initiation of treatment. […]

nitrotyrosine (Ntyr) = assay: SIN-1-induced cellular protein nitration, nitrotyrosine immunofluorescence in SH-SY5Y cells; type: cell-based, human; conditions: 20 μM corrole, SIN-1 700 μM, 24 h
Experimental: To determine the effect of the corroles on SIN-1-induced cellular protein nitration, SH-SY5Y neuroblastoma cells were treated with SIN-1 (700 μM) in the absence or presence of 20 μM of the corroles 1C-Fe, 2C-Mn, and 3C-Mn. Protein nitration was detected by immunofluorescence analysis using a monoclonal antibody against nitrotyrosine (Ntyr), a biological marker of peroxynitrite.

[5] = CuSO4/ascorbate, no additive 44 μM
[6] = CuSO4/glutathione, no additive 11 μM

| Structure (SMILES) | IC50 [1] [nM] | protection against 6-OHDA compared with porphyrins 1P-Fe and 2P-Mn (SH-SY5Y cells [2]) | 6-OHDA-induced cytotoxicity (MTT, cell death ELISA) (SH-SY5Y cells [2]; 24 h) | cell mortality, morphology and apoptotic nuclei (GAP-43 immunofluorescence, TUNEL, DAPI) (SH-SY5Y cells [2]; 24 h) | 6-OHDA-induced increase of cleaved caspase-3 (cleaved caspase-3) | cytoprotective effect against H2O2-induced toxicity (RIN-m cells) | Yield (%) or amount of product (Formaldehyde) [3, 5] [µM] | Yield (%) or amount of product (Formaldehyde) [3, 6] [µM] | preventing oxidative damage / protection against metal-induced oxidation of substrates [3] | SIN-1-induced cytotoxicity (MTT and ELISA) (NSC-34 cells) | protection against SIN-1 (MTT reduction analysis and ELISA assay) (SH-SY5Y cells [4]) | nitrotyrosine (Ntyr) staining, SIN-1-induced (nitrotyrosine (Ntyr)) | other results |
| --- | --- | --- | --- | --- | --- | --- | --- | --- | --- | --- | --- | --- | --- |
| O=S(=O)(O)c1cc2[n]3c1C(c1c(F)c(F)c(F)c(F)c1F)=C1C=CC4=[N+]1[Fe-]31[n]3c(cc(S(=O)(=O)O)c3-2)C(c2c(F)c(F)c(F)c(F)c2F)=c2ccc([n]21)=C4c1c(F)c(F)c(F)c(F)c1F (stereo not drawn) [1C-Fe, 2,17-bis(sulfonato)-5,10,15-tris(pentafluorophenyl)-corrolato iron(III)] | 1640 | remarkable superiority over the porphyrins | significantly attenuated 6-OHDA-induced cytotoxicity | significantly attenuated 6-OHDA-induced cell mortality, improved cell morphology and reduced the number of apoptotic nuclei | abolished partially | showed cytoprotective effects | 0 | 0 | very potent in preventing the oxidative damage | significantly attenuated | protect, in a dose-dependent manner | partial (albeit quite remarkable) reduction in Ntyr staining | neuroprotective effect against 6-OHDA-induced toxicity (SH-SY5Y cells [2]; 1-20 μM, 30 min before 6-OHDA (60 μM), 24 h): dose-dependent neuroprotective effect; neurorescue after 6-OHDA insult (SH-SY5Y cells [2]; 6-OHDA (60 μM) for 0.5, 1.5, 3 and 6 h, then 10 μM, 24 h): instigated neurorescue; protective effect against H2O2 toxicity relative to porphyrin 1P-Fe (MTT) (RIN-m cells; 20 μM, 30 min before 35 μM H2O2, 24 h): exhibit a greater protective effect; protective effect against H2O2 toxicity (MTT) (RIN-m cells; 1-50 μM before 35 μM H2O2): significant protective effect; protection against H2O2-mediated cytotoxicity (MTT and ELISA) (NSC-34 cells; 30 min before H2O2 (200 μM)): significant protection; neurorescue after SIN-1 insult (SH-SY5Y cells [4]; 20 μM added 0.5, 1.5 or 3 h after insult, 24 h (Example 11)): instigated neurorescue; cytoprotection against different SIN-1 concentrations (SH-SY5Y cells [4]; 25 μM corrole, FIG. 12C): protect cells against different SIN-1 concentrations; neuroprotective effect against SIN-1 induced toxicity (SH-SY5Y cells [4]; 10 and 20 μM, 30 min pretreatment, 24 h (Example 11)): dose-dependent neuroprotective effect; inhibition of neuronal death by SIN-1 (SH-SY5Y cells [4]; 10 and 20 μM, less potent than 2C-Mn and 3C-Mn): able to inhibit neuronal death |
| C[n+]1ccc(C2=C3C=CC4=[N+]3[Mn-]35[n]6c2ccc6-c2ccc([n]23)C(c2cc[n+](C)cc2)=c2ccc([n]25)=C4c2c(F)c(F)c(F)c(F)c2F)cc1.[I-].[I-] (stereo not drawn) [2C-Mn, 5,15-bis(4-N-methyl-pyridilium)-10-pentafluorophenyl-corrolato manganese(III) diiodide salt] | 1520 | remarkable superiority over the porphyrins | significantly attenuated 6-OHDA-induced cytotoxicity | significantly attenuated 6-OHDA-induced cell mortality, improved cell morphology and reduced the number of apoptotic nuclei | totally | totally inefficient; also recorded: inefficiency | 7 | 5 | protect better than corrole 1C-Mn | significantly attenuated | protect, in a dose-dependent manner | totally abolished |  |
